Data set [1] can be described thus: Electrostatic charge measurement with Faraday cage apparatus. Type of data set: physicochemical. Particulars: for Electrostatic charge of active agent, Approx. Magnitude: exemplary active agent of the charge range. The protocol:
Determination of the electrostatic charge of the SAE-CD-containing carrier and the active agent-containing composition.
Electrostatic charge measurements were performed using a Faraday Cage apparatus that determines the potential difference changes as a function of time during powder flow onto a conducting surface. Samples were weighed and transferred from original containers to wax coated weighing papers. These were mounted to a vibrating spatula (set at maximum vibration level). The angle of the spatula was set at a constant angle (30 degrees). Powder was dispensed to the Faraday cage that was connected to a electrometer. Data collection was performed using Windaq interface and a PC computer sampling at 240 Hz. The area under the electrostatic dissipation curve was determined (Voltage×time) and charge (nC/g) was calculated from the known resistance of the setup.

In a further data set the test system is healthy volunteers. Particulars: nasal spray in aqueous sulfobutylether-beta-cyclodextrin buffer solution; cited from earlier work.
For another data set, the system named is rats. Particulars: inhaled aerosol composition, SBE-CD present alone; cited from earlier work.

Consider 4 compounds from US10117940B2, “DPI formulation containing sulfoalkyl ether cyclodextrin” (CyDex Pharmaceuticals, Inc., priority 2004, dated 2018).

Where only a bound is given, the exact number is not on record here.

With `CC(C)(C)NCC(O)c1ccc(O)c(CO)c1` (stereo not drawn) [Albuterol, alpha^1-(((1,1-dimethylethyl)amino)methyl)-4-hydroxy-1,3-benzenedimethanol], in data set [1], the “Polarity and magnitude of electrostatic charge (in words)” value is reported as “high positive charge”; the “Electrostatic charge of active agent, Approx. Magnitude” value is on record as greater than 4 nC/g.
With `O=C(O)c1cc(=O)c2c(OCC(O)COc3cccc4oc(C(=O)O)cc(=O)c34)cccc2o1` [Na Cromolyn, sodium cromolyn], in data set [1], the “Polarity and magnitude of electrostatic charge (in words)” value is on record as “electroneutral”; the “Electrostatic charge of active agent, Approx. Magnitude” value was −2 to −0.5 nC/g. In data set [1] (micronized for inhalation), this compound gave an Electrostatic charge of −1 to −1.7 nC/g.
In the case of `Cc1ncc2n1-c1ccc(Cl)cc1C(c1ccccc1F)=NC2` [midazolam], the Side effects entry in the data set with healthy volunteers was “No serious side effects”.
For the compound “sulfobutyl ether derivative of beta cyclodextrin [SBE-CD]”, in the data set with rats, the Toxicity entry is “non-toxic”.
